Assay results taken from patent publication US9146240B2, “Systems and methods for determining a C-peptide receptor, C-peptide receptor, and methods of using same” (Saint Louis University, priority 2012, dated 2015).

Molecular target: T1, GPR146 (Homo sapiens, UniProt Q96CH1)
T1 construct: endogenous in cells; host or cells: KATOIII (human stomach carcinoma)
Test: C-peptide-induced cFos expression in KATOIII cells after siRNA transfection
Format: cell-based
Conditions: 1 nmole C-peptide, 1 hour
Description: Once the hierarchical candidates were identified and ranked, KATOIII cells were then transfected with siRNA (Integrated DNA technologies) (111) directed against either GPR107 (control), GPR146 (most likely candidate not yet tested) or eGFP (green fluorescent protein—control) using Lipofectamine […] (Invitrogen). Five hours later, the media was changed to serum free control media (ATCC) and the serum was starved overnight. Twenty-four (24) hours after transfection with siRNA, cells were treated with 1 nmole C-peptide (Phoenix Pharmaceuticals) for 1 hour, then lysed and RNA were isolated using an RNeasy Kit (Qiagen). RNA was used as a template from the production of cDNA, and changes in cFos expression were determined using RT-PCR (BioRad 2x iQ SyberGreen Master Mix, using a BioRad CFX real time system). […] As this produced the desired negative response (113), GPR146 was the target GPCR (115). The receptiveness of GPR146 to C-peptide has since been verified by additional conventional tests

T1 sequence (Q96CH1 whole entry): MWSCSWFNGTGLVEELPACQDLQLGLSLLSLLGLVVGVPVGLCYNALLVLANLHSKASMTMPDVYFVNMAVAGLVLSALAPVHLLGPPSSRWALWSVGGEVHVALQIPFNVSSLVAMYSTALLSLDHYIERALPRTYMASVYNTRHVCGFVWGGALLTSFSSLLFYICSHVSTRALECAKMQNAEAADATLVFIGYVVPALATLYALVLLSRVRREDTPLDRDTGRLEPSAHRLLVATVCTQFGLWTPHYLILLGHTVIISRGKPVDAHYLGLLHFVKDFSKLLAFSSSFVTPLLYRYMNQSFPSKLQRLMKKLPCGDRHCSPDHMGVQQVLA

C-peptide
changes in cFos expression (KATOIII cells transfected with GPR107 siRNA (control)): increase in cFos | changes in cFos expression (KATOIII cells transfected with GPR146 siRNA (GPR146 compromised), FIG. 6): failed to respond | changes in cFos expression (KATOIII cells transfected with Vehicle (Lipofectamine 2000 alone, no siRNA)): increase in cFos | changes in cFos expression (KATOIII cells transfected with sGFPO siRNA (control)): increase in cFos
